Reference: patent US11161839B2, “2-quinolone derived inhibitors of BCL6” (Cancer Research Technology Limited, priority 2017, dated 2021)
Where two headings read alike, the source gives them in different places.

How the values were obtained:
[1] = molecular target: human BCL6 BTB domain (Trx-6xHis-BCL6) (Homo sapiens (Human), UniProt P41182); test: HTRF in vitro assay (BCL6 BTB domain / BCOR-AF633 peptide); assay type: binding
[2] = molecular target: BCL6-NCOR2(SMRT) corepressor protein-protein interaction (Homo sapiens (Human), UniProt P41182); test: NanoBRET cell assay in transfected HEK293T cells; assay type: cell-based
[3] = further generated data (Table 1b), 1 nM Trx-6xHis-BCL6, 0.5 nM anti-6xHis-Terbium cryptate
[4] = initially generated data (Table 1a), 10 nM Trx-6xHis-BCL6, 1 nM anti-6xHis-Terbium cryptate
[5] = further generated data (Table 2b), HEK293T cells, 6 hr, read-out: NanoBRET cell pIC50 (converted)

HTRF pIC50 [1, 3] | HTRF pIC50 [1, 4] | IC50 [2, 5] [µM] | IC50 ([1]; further generated data (Table 1b), 1 nM Trx-6xHis-BCL6, 0.5 nM anti-6xHis-Terbium cryptate, read-out: HTRF pIC50 (converted)) [µM] | Compound | IC50 [2] [µM]
6.17 |  | 15.1 |  | CC(Nc1cc(=O)n(C)c2ccc(Nc3ccnc(C#N)c3Cl)cc12)c1ncccn1 (stereo not shown) [Example 19h, 3-chloro-4-((1-methyl-2-oxo-4-((1-(pyrimidin-2-yl)ethyl)amino)-1,2-dihydroquinolin-6-yl)amino)picolinonitrile] | 
6.38 |  | 9.33 |  | Cn1c(=O)cc(NC2(c3ncccn3)CCOC2)c2cc(Nc3ccnc(Cl)c3C#N)ccc21 (stereo not shown) [Example 19i, 2-chloro-4-((1-methyl-2-oxo-4-((3-(pyrimidin-2-yl)tetrahydrofuran-3-yl)amino)-1,2-dihydroquinolin-6-yl)amino)nicotinonitrile] | 
6.32 |  | 3.24 |  | CC(Nc1cc(=O)n(C)c2ccc(Nc3nc(NCc4cccnc4)ncc3Cl)cc12)c1ncccn1 (stereo not shown) [Example 17f, 6-((5-chloro-2-((pyridin-3-ylmethyl)amino)pyrimidin-4-yl)amino)-1-methyl-4((1-(pyrimidin-2-yl)ethyl)amino)quinolin-2(1H)-one:formic acid (1:1)] | 
6.53 |  | 4.47 |  | C[C@@H](Nc1cc(=O)n(C)c2ncc(Nc3ccnc(Cl)c3C#N)cc12)C1CC1 [Example 24d, (R)-2-chloro-4-((5-((1-cyclopropylethyl)amino)-8-methyl-7-oxo-7,8-dihydro-1,8-naphthyridin-3-yl)amino)nicotinonitrile] | 
6.28 |  | 4.27 |  | CC(Nc1cc(=O)n(C)c2ccc(Nc3cc(N4C[C@@H](C)O[C@@H](C)C4)ncc3Cl)cc12)c1ncccn1 (stereo partly drawn) [Example 15e, 6-((5-chloro-2-((2S,6R)-2,6-dimethylmorpholino)pyridin-4-yl)amino)-1-methyl-4-((1-(pyrimidin-2-yl)ethyl)amino)quinolin-2(1H)-one] | 
6.45 |  | 5.13 |  | CCC(C)(Nc1cc(=O)n(C)c2ccc(Nc3ccnc(Cl)c3C#N)cc12)c1ncccn1 (stereo not shown) [Example 24c, 2-chloro-4-((1-methyl-2-oxo-4-((2-(pyrimidin-2-yl)butan-2-yl)amino)-1,2-dihydroquinolin-6-yl)amino)nicotinonitrile] | 
6.25 |  | 9.12 |  | COCC(C)(C)Nc1cc(=O)n(C)c2ccc(Nc3nc(N4CCC(C(=O)N(C)C)CC4)ncc3Cl)cc12 [Example 16d, 1-(5-chloro-4-((4-((1-methoxy-2-methylpropan-2-yl)amino)-1-methyl-2-oxo-1,2-dihydroquinolin-6-yl)amino)pyrimidin-2-yl)-N,N-dimethylpiperidine-4-carboxamide] | 
6.34 |  | 3.47 |  | CC(Nc1cc(=O)n(C)c2ccc(Nc3nc(N4CCC(CC(=O)N(C)C)CC4)ncc3Cl)cc12)c1ncccn1 (stereo not shown) [Example 17e, 2-(1-(5-chloro-4-((1-methyl-2-oxo-4-((1-(pyrimidin-2-yl)ethyl)amino)-1,2-dihydroquinolin-6-yl)amino)pyrimidin-2-yl)piperidin-4-yl)-N,N-dimethylacetamide:formic acid (1:1)] | 
6.40 |  | 7.08 |  | CNC(=O)c1cc(Nc2ccc3c(c2)c(NC(C)c2ncccn2)cc(=O)n3C)c(C#N)c(C)n1 (stereo not shown) [Example 18b, 5-cyano-N, 6-dimethyl-4-((1-methyl-2-oxo-4-((1-(pyrimidin-2-yl)ethyl)amino)-1,2-dihydroquinolin-6-yl)amino)picolinamide] | 
6.51 |  | 8.71 |  | COCC(C)(C)Nc1cc(=O)n(C)c2ccc(Nc3ccnc(Cl)c3C#N)cc12 [Example 19d, 2-chloro-4-((4-((1-methoxy-2-methylpropan-2-yl)amino)-1-methyl-2-oxo-1,2-dihydroquinolin-6-yl)amino)nicotinonitrile] | 
6.58 |  | 2.63 |  | CN(C)C(=O)C1CCN(c2ncc(Cl)c(Nc3ccc4c(c3)c(NC(C)(C)c3ncccn3)cc(=O)n4C)n2)CC1 [Example 16a, 1-(5-chloro-4-((1-methyl-2-oxo-4-((2-(pyrimidin-2-yl)propan-2-yl)amino)-1,2-dihydroquinolin-6-yl)amino)pyrimidin-2-yl)-N,N-dimethylpiperidine-4-carboxamide] | 
6.47 |  | 7.24 |  | CC(Nc1cc(=O)n(C)c2ccc(Nc3cc(N4CCC(C(=O)N(C)C)CC4)ncc3Cl)cc12)c1ncccn1 (stereo not shown) [Example 15g, 1-(5-chloro-4-((1-methyl-2-oxo-4-((1-(pyrimidin-2-yl)ethyl)amino)-1,2-dihydroquinolin-6-yl)amino)pyridin-2-y1)-N,N-dimethylpiperidine-4-carboxamide] | 
6.20 |  | 2.82 |  | CC(Nc1cc(=O)n(C)c2ccc(Nc3nc(N4CCC(F)(F)CC4)ncc3Cl)cc12)c1ncccn1 (stereo not shown) [Example 17i, 6-((5-chloro-2-(4,4-difluoropiperidin-1-yl)pyrimidin-4-yl)amino)-1-methyl-4-((1-(pyrimidin-2-yl)ethyl)amino)quinolin-2(1H)-one] | 

The remaining lines, values behind:

Compound | HTRF pIC50 [1, 3] | HTRF pIC50 [1, 4] | IC50 [2, 5] [µM] | IC50 ([1]; further generated data (Table 1b), 1 nM Trx-6xHis-BCL6, 0.5 nM anti-6xHis-Terbium cryptate, read-out: HTRF pIC50 (converted)) [µM] | IC50 [2] [µM]
CNC(=O)c1cc(Nc2ccc3c(c2)c(NC(C)c2ncccn2)cc(=O)n3C)c(C#N)c(Cl)n1 (stereo not shown) [Example 1v, 6-chloro-5-cyano-N-methyl-4-[[1-methyl-2-oxo-4-(1-pyrimidin-2-ylethylamino)-6-quinolyl]amino]pyridine-2-carboxamide] | 7.31 | 6.76 | 0.933 |  | 
Cc1cnc(C(C)Nc2cc(=O)n(C)c3ccc(Nc4ccnc(Cl)c4C#N)cc23)nc1 (stereo not shown) [Example 10f] | 7.12 |  |  |  | 1.07
CC(Nc1cc(=O)n(C)c2ccc(Nc3ccnc(Cl)c3Cl)cc12)c1ncccn1 (stereo not shown) [Example 6a, 6-[(2,3-Dichloro-4-pyridyl)amino]-1-methyl-4-(1-pyrimidin-2-ylethylamino)quinolin-2-one] | 6.56 | 6.36 | 2.82 |  | 
CC(Nc1cc(=O)n(CCN2C(=O)CCC2=O)c2ccc(Nc3ccnc(Cl)c3C#N)cc12)c1ncccn1 (stereo not shown) [Example 1c, 2-chloro-4-[[1-[2-(2,5-dioxopyrrolidin-1-yl)ethyl]-2-oxo-4-(1-pyrimidin-2-ylethylamino)-6-quinolyl]amino]pyridine-3-carbonitrile] | 6.73 | 6.63 | 22.4 |  | 
CC(Nc1cc(=O)n(CCO)c2ccc(Nc3ccnc(Cl)c3C#N)cc12)c1ncccn1 (stereo not shown) [Example 11j, 2-chloro-4-((1-(2-hydroxyethyl)-2-oxo-4-((1-(pyrimidin-2-yl)ethyl)amino)-1,2-dihydroquinolin-6-yl)amino)nicotinonitrile] | 6.83 |  | 11 |  | 
Cn1c(=O)cc(NC(C)(C)c2ccccn2)c2cc(Nc3ccnc(Cl)c3C#N)ccc21 [Example 11b, 2-chloro-4-((1-methyl-2-oxo-4-((2-(pyridin-2-yl)propan-2-yl)amino)-1,2-dihydroquinolin-6-yl)amino)nicotinonitrile:formic acid (1:1)] | 6.52 |  | 1.29 |  | 
Cn1c(=O)cc(N[C@H](CO)C2CC2)c2cc(Nc3ccnc(Cl)c3C#N)ccc21 [Example 11a, (S)-2-chloro-4-((4-((1-cyclopropyl-2-hydroxyethyl)amino)-1-methyl-2-oxo-1,2-dihydroquinolin-6-yl)amino)nicotinonitrile] | 6.78 |  | 3.39 |  | 
C[C@@H](CO)Nc1cc(=O)n(C)c2ccc(Nc3ccnc(Cl)c3C#N)cc12 [Example 3g, (S)-2-Chloro-4-((4-((1-hydroxypropan-2-yl)amino)-1-methyl-2-oxo-1,2-dihydroquinolin-6-yl)amino)nicotinonitrile] | 6.39 | 6.43 | 20.9 |  | 
CC(C)(Nc1cc(=O)n(CC2CCCCC2)c2ccc(Nc3ccnc(Cl)c3C#N)cc12)c1ncccn1 [Example 10o, 2-chloro-4-((1-(cyclohexylmethyl)-2-oxo-4-((2-(pyrimidin-2-yl)propan-2-yl)amino)-1,2-dihydroquinolin-6-yl)amino)nicotinonitrile] | 6.50 |  | 2.29 |  | 
Cc1cc(C)n(-c2ncc(Cl)c(Nc3ccc4c(c3)c(NC(C)c3ncn(C)n3)cc(=O)n4C)n2)n1 (stereo not shown) [Example 14b, 6-((5-chloro-2-(3,5-dimethyl-1H-pyrazol-1-yl)pyrimidin-4-yl)amino)-1-methyl-4-((1-(1-methyl-1H-1,2,4-triazol-3-yl)ethyl)amino)quinolin-2(1H)-one] | 6.64 |  | 8.32 |  | 
CC(Nc1nc(=O)n(C)c2ccc(Nc3nc(N4CCC(C(=O)N(C)C)CC4)ncc3Cl)cc12)c1ncccn1 (stereo not shown) [Example 12d, 1-(5-chloro-4-((1-methyl-2-oxo-4((1-(pyrimidin-2-yl)ethyl)amino)-1,2-dihydroquinazolin-6-yl)amino)pyrimidin-2-yl)-N,N-dimethylpiperidine-4-carboxamide] | 6.78 |  | 11.2 |  | 
COc1cc(Nc2nc(N3CCC(C(=O)N(C)C)CC3)ncc2Cl)cc2c(NC(C)(C)c3ncccn3)cc(=O)n(C)c12 [Example 12c] |  |  | 3.31 | 0.525 | 
Cn1c(=O)cc(NC(C)(C)c2ncc(C3CC3)cn2)c2cc(Nc3cc(C(=O)N4CCC4)nc(Cl)c3C#N)ccc21 [Example 8b, 6-(azetidine-1-carbonyl)-2-chloro-4-((4-((2-(5-cyclopropylpyrimidin-2-yl)propan-2-yl)amino)-1-methyl-2-oxo-1,2-dihydroquinolin-6-yl)amino)nicotinonitrile] | 7.86 |  | 0.741 |  | 
CC(Nc1cc(=O)n(C)c2ccc(Nc3cc(C(=O)N4CC(C(F)(F)F)C4)nc(Cl)c3C#N)cc12)c1ncc(C2CC2)cn1 (stereo not shown) [Example 8f, 2-chloro-4-((4-((1-(5-cyclopropylpyrimidin-2-yl)ethyl)amino)-1-methyl-2-oxo-1,2-dihydroquinolin-6-yl)amino)-6-(3-(trifluoromethyl)azetidine-1-carbonyl)nicotinonitrile] | 6.99 |  | 5.25 |  | 
